For test [1], the system named is isolated, working rat hearts. Kind of test: Test 3: Isolated, working rat hearts (Langendorff), coronary flow. On the set-up: species or system Wistar-Kyoto rats. The settings on record: 10^−6 mol/l; for Coronary flow: treated hearts, n=4. An excerpt: Pharmacol. 8 (Suppl. 10) (1986) S91-S99.
Test 3: Isolated, working rat hearts
Isolated hearts of Wistar-Kyoto rats (280-300 g body weight) are perfused with a constant perfusion pressure of 60 mmHg according to the method of Langendorff using an oxygen-saturated (95% O2, 5% CO2), nonrecirculating, modified Krebs-Henseleit buffer solution (118 mmol/l of NaCl, 4.7 mmol/l of KCl, 2.5 mmol/l of CaCl2, 1.6 mmol/l of MgSO4, 24.9 mmol/l of NaHCO3, 1.2 mmol/l of KH2PO4, 5.5 mmol/l of glucose, and 2.0 mmol/l of sodium pyruvate). For the measurement of the coronary flow, a catheter having an electromagnetic measuring head placed in the pulmonary artery was used. After a 15-minute equilibration period, the heart is converted into the working mode, in which a preload of 15 mmHg and an afterload of 60 mmHg is set. The working load of the heart remains constant during the entire test time of 90 minutes. Flow and pressure signals for the analysis are recorded by means of a PLUGSYS measuring system (Hugo Sachs Elektronik). The analysis of the data is carried out at a collection frequency of 500 Hz, averaged every 2 seconds, using the software Aquire Plus VI.21f (PO-NE-MAH).

The subject of test [2] is human platelet-rich plasma. Kind of test: Test 4: Collagen-induced platelet aggregation in human platelet-rich plasma. The format is cell-based. As to conditions: collagen + 30 μM compound, 37° C., 20 min incubation, n=6; collagen alone 92±2.7%. The procedure:
The action of compounds of formula (I) on collagen-induced platelet aggregation was investigated in human platelet-rich plasma, which is described, for example, in G.V. Born et al., Nature (1962).
Human platelet-rich plasma (PRP) from 6 blood donors was incubated with the test compound at 37° C. for 20 min, then activated with collagen, and the maximal aggregation of the platelets was quantified in % via light transmission.

Consider `CCCCOC(=O)NS(=O)(=O)c1sc(CC(C)C)cc1-c1ccc(Cn2c(-c3ccccc3)nc(OC)c2C=O)cc1` [Example 2, 5-Formyl-4-methoxy-2-phenyl-1-[[4-[2-(n-butyloxycarbonylsulfonamido)-5-isobutyl-3-thienyl]phenyl]methyl]imidazole], for which the heart rate result in test [1] (during the entire experiment) is “unchanged”. Further, the Coronary flow in test [1] (time 0 min) came out at 8.92 ± 0.68 mL/min; in test [1] (time 5 min), 11.29 ± 0.90 mL/min; in test [1] (time 10 min), 12.17 ± 0.74 mL/min; in test [1] (time 15 min), 12.22 ± 0.10 mL/min. Moreover, in test [2], the platelet aggregation is listed as 52±5.7 % aggregation.

The values above are taken from patent publication US6429222B2, “1-(p-thienylbenzyl)imidazoles as agonists of angiotensin (1-7) receptors, processes for their preparation, their use, and pharmaceutical preparations comprising them” (priority 1999, dated 2002).
